Legend:
[1] = molecular target: T1, phosphor-EGFR in H1975(L585R/T790M) mutant EGFR expressing cells (Homo sapiens, UniProt P00533, L858R/T790M); assay: H1975 pEGFR MSD cellular assay; assay type: cell-based; conditions: NCI-H1975 cells, serum starved, 1 hour compound incubation, pEGFR Tyr1068 MSD
T1 construct: host or cells: NCI-H1975
Procedure: H1975 pEGFR MSD Cellular Assays Background:
These assays are intended for determining cellular. […] (Meso Scale Discovery Catalog# N31CB-1).
All cell culture reagents were purchased from Invitrogen/Gibco. Cells are cultured at 37° C. at 5% CO2 and split as recommended by ATCC.
Cell Plating and Serum Starvation:
After six hours, culture medium is aspirated and replaced with serum-free culture medium. Cells are then incubated with the serum-free medium overnight at 37° C. and 5% CO2.
The following day, test compounds are serially diluted in dimethyl sulfoxide (DMSO) and added to cells in serum free medium (final DMSO concentration 0.5%). Assay plates are then incubated for 1 hour at 37° C. and 5% CO2. Following 1 hour of compound incubation cells are then lysed and processed as per the MSD pEGFR assay kit protocol. Cell lysates are added to assay plates pre-coated with antibodies against phosphorylated EGFR. Phosphorylated EGFR in samples are allowed to bind to the capture antibodies overnight at 4° C. The detection antibody (anti-total EGFR, labeled with an electrochemiluminescent SULFO-TAG) is added to the bound lysate and incubated for 1 hour at room temperature. The MSD Read Buffer is added such that when a voltage is applied to the plate electrodes, the labels bound to the electrode surface emit light. The MSD Sector Instrument measures the intensity of the light, and quantitatively measures the amount of phosphorylated-EGFR in the sample. Percent inhibition of EGFR phosphorylation by varying concentrations of test compounds is calculated relative to untreated controls. EC50 values are calculated using the 4 parameter logistic nonlinear regression dose-response model.

EGFR del746-750 T790M = molecular target: T2, EGFR del746-750 T790M (Homo sapiens, UniProt P00533, DEL746-750/T790M); assay: EGFR del746-750 T790M biochemical assay (Caliper mobility shift); conditions: 5 μM ATP, 30 min, room temperature; apparent Ki (Morrison) converted by Cheng-Prusoff, Km of ATP 2.1 μM; read-out: EGFR(T790M/d746-750) Ki
T2 construct: purchased Carna Biosciences 08-528
T2 sequence (P00533 with tags, fused parts or gaps DEL746-750/T790M limits assumed): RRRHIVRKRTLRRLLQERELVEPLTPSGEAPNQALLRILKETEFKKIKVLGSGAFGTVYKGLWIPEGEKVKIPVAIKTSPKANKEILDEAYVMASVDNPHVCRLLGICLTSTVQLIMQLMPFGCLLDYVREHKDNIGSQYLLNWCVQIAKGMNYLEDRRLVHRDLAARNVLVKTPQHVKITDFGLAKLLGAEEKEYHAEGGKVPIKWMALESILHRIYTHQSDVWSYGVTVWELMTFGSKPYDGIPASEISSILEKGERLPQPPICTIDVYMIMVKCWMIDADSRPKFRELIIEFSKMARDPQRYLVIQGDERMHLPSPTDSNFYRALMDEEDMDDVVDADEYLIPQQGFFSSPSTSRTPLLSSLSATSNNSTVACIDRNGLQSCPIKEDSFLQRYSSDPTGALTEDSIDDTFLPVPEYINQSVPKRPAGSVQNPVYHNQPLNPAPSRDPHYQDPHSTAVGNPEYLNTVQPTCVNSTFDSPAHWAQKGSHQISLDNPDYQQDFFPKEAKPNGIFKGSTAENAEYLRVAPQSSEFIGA

T1 sequence (P00533 25-1210 T790M/L858R): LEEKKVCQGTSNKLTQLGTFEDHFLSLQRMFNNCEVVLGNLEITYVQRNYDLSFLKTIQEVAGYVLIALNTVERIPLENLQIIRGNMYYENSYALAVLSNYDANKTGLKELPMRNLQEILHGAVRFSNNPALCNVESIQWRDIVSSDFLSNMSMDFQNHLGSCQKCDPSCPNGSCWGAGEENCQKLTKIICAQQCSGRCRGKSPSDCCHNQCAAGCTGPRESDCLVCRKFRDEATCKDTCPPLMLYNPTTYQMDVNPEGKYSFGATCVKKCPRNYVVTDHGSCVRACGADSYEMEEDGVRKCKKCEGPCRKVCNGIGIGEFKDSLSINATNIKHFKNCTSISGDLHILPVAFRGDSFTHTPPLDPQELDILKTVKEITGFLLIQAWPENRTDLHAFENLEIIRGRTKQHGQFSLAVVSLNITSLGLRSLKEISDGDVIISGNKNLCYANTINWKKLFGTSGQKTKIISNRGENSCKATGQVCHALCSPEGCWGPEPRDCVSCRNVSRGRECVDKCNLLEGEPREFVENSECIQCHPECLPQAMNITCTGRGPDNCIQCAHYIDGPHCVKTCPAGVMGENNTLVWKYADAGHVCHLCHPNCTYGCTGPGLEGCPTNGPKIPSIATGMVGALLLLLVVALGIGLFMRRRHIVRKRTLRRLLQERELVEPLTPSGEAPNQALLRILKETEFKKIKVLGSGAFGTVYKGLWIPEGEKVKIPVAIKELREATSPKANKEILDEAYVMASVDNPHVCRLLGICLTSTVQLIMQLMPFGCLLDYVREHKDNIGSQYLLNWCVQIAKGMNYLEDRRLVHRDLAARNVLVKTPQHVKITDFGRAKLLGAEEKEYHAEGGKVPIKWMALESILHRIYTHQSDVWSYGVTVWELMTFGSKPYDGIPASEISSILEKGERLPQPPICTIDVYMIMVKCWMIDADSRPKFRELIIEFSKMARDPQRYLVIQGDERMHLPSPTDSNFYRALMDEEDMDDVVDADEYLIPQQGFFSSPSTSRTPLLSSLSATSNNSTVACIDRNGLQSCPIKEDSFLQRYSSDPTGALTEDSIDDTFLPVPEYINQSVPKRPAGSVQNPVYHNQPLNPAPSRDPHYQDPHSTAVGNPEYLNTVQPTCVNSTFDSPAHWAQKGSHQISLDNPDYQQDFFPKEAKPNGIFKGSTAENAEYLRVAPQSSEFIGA

SMILES | EC50 [1] [nM] | Ki (EGFR del746-750 T790M) [nM]
CCC(C)n1cc(C(=O)NC2CCOC2)c2cnc(Nc3ccnc(N4CCC(O)C(C)(C)C4)n3)cc21 (mixture of isomers) [Example 373, 1-(sec-butyl)-6-((2-(4-hydroxy-3,3-dimethylpiperidin-1-yl)pyrimidin-4-yl)amino)-N-(tetrahydrofuran-3-yl)-1H-pyrrolo[3,2-c]pyridine-3-carboxamide] | 67.3 | 4.44
CCC(C)n1cc(C(=O)NC2CCOCC2)c2cnc(Nc3ccnc(N4CCC(O)C(C)(C)C4)n3)cc21 (mixture of isomers) [Example 383, 1-(sec-butyl)-6-((2-(4-hydroxy-3,3-dimethylpiperidin-1-yl)pyrimidin-4-yl)amino)-N-(tetrahydro-2H-pyran-4-yl)-1H-pyrrolo[3,2-c]pyridine-3-carboxamide] | 34.7 | 2.81
C[C@H](n1c([C@@H](C)O)nc2cnc(Nc3ccnc(N4CCC(O)C(F)C4)n3)cc21)C(F)(F)F (mixture of isomers) [Example 296, cis-3-Fluoro-1-{4-[2-((R)-1-hydroxyethyl)-1-((S)-2,2,2-trifluoro-1-methylethyl)-1H-imidazo[4,5-c]pyridin-6-ylamino]pyrimidin-2-yl}piperidin-4-ol] | 189 | 5.04
CC(C)n1c(C2CCCO2)nc2cnc(Nc3ccnc(-c4cnn(S(=O)(=O)C5CC5)c4)n3)cc21 (racemic) [Example 565, (±)-[2-(1-Cyclopropanesulfonyl-1H-pyrazol-4-yl)-pyrimidin-4-yl]-[1-isopropyl-2-(tetrahydro-furan-2-yl)-1H-imidazo[4,5-c]pyridin-6-yl]amine] | 1160 | –
CCNC(=O)c1cn(C(C)CC)c2cc(Nc3ccnc(N4CC[C@@H](O)[C@@H](F)C4)n3)ncc12 (single isomer, unassigned) [Example 369] | 239 | 5.47
CCC(C)n1cc(C(=O)NC2CCOCC2)c2cnc(Nc3ccnc(N4CC[C@@H](OC)[C@@H](F)C4)n3)cc21 (single isomer, unassigned) [Example 376] | 14.5 | 2.88
CCC(C)n1cc(C(=O)NC2CCOCC2)c2cnc(Nc3ccnc(-c4cnn(S(=O)(=O)C5CC5)c4)n3)cc21 (single isomer, unassigned; (-)) [Example 322, (−)-1-(sec-butyl)-6-((2-(1-(cyclopropylsulfonyl)-1H-pyrazol-4-yl)pyrimidin-4-yl)amino)-N-(tetrahydro-2H-pyran-4-yl)-1H-pyrrolo[3,2-c]pyridine-3-carboxamide] | 60.9 | 1.34
COC1CCN(c2nccc(Nc3cc4c(cn3)nc(C)n4C(C)C)n2)CC1 [Example 5, (1-Isopropyl-2-methyl-1H-imidazo[4,5-c]pyridin-6-yl)-[2-(4-methoxypiperidin-1-yl)pyrimidin-4-yl]amine] | 871 | 47.7
COC1CCN(c2nccc(Nc3cc4c(cn3)nc(COCCN(C)C)n4C(C)C)n2)CC1 [Example 8, [2-(2-Dimethylaminoethoxymethyl)-1-isopropyl-1H-imidazo[4,5-c]pyridin-6-yl]-[2-(4-methoxypiperidin-1-yl)pyrimidin-4-yl]amine] | 585 | 106
COC1CCN(c2nccc(Nc3cc4c(cn3)ncn4C3CCCC3)n2)CC1 [Example 26, (1-Cyclopentyl-1H-imidazo[4,5-c]pyridin-6-yl)-[2-(4-methoxy-piperidin-1-yl)-pyrimidin-4-yl]amine] | 1190 | 25.2
CC(C)n1cc(C(N)=O)c2cnc(Nc3ccnc(-c4cnn(S(=O)(=O)C5CC5)c4)n3)cc21 [Example 51, 6-((2-(1-(Cyclopropylsulfonyl)-1H-pyrazol-4-yl)pyrimidin-4-yl)amino)-1-isopropyl-1H-pyrrolo[3,2-c]pyridine-3-carboxamide] | 181 | –
COc1ccc(-c2nccc(Nc3cc4c(cn3)ncn4C(C)C)n2)cn1 [Example 54, 1-Isopropyl-N-(2-(6-methoxypyridin-3-yl)pyrimidin-4-yl)-1H-imidazo[4,5-c]pyridin-6-amine] | 3570 | –
COCC(C)(C)n1c(C)nc2cnc(Nc3ccnc(N4CCC(OC)CC4)n3)cc21 [Example 164, [1-(2-Methoxy-1,1-dimethylethyl)-2-methyl-1H-imidazo[4,5-c]pyridin-6-yl]-[2-(4-methoxypiperidin-1-yl)pyrimidin-4-yl]amine] | 4710 | –
CC(C)n1cc(C2CNC(=O)C2)c2cnc(Nc3ccnc(-c4cnn(S(=O)(=O)C5CC5)c4)n3)cc21 (stereo not shown) [Example 256, 4-(6-(2-(1-(Cyclopropylsulfonyl)-1H-pyrazol-4-yl)pyrimidin-4-ylamino)-1-isopropyl-1H-pyrrolo[3,2-c]pyridin-3-yl)pyrrolidin-2-one] | 1050 | –
COC1(CN)CCN(c2nccc(Nc3cc4c(cn3)nc(C)n4C(C)C)n2)CC1 [Example 271, [2-(4-Aminomethyl-4-methoxypiperidin-1-yl)pyrimidin-4-yl](1-isopropyl-2-methyl-1H-imidazo[4,5-c]pyridin-6-yl)amine] | 5750 | –
CC(C)n1c(OCCO)nc2cnc(Nc3ccnc(-c4cnn(S(=O)(=O)C5CC5)c4)n3)cc21 [Example 282, 2-{6-[2-(1-Cyclopropanesulfonyl-1H-pyrazol-4-yl)pyrimidin-4-ylamino]-1-isopropyl-1H-imidazo[4,5-c]pyridin-2-yloxy}ethanol] | 414 | –
CC(C)n1cc(C(=O)NC2COC2)c2cnc(Nc3ccnc(-c4cnn(S(=O)(=O)N(C)C)c4)n3)cc21 [Example 378, 6-((2-(1-(N,N-dimethylsulfamoyl)-1H-pyrazol-4-yl)pyrimidin-4-yl)amino)-1-isopropyl-N-(oxetan-3-yl)-1H-pyrrolo[3,2-c]pyridine-3-carboxamide] | 177 | –
Cc1nc2cnc(Nc3ccnc(-c4cnn(CC5CC5)c4)n3)cc2n1C(C)C [Example 395, N-(2-(1-(cyclopropylmethyl)-1H-pyrazol-4-yl)pyrimidin-4-yl)-1-isopropyl-2-methyl-1H-imidazo[4,5-c]pyridin-6-amine] | 1340 | –
COC1(CO)CCN(c2nccc(Nc3cc4c(cn3)c(-c3cnn(C(C)(C)C(N)=O)c3)cn4C(C)C)n2)CC1 [Example 445, 2-(4-(6-(2-(4-(hydroxymethyl)-4-methoxypiperidin-1-yl)pyrimidin-4-ylamino)-1-isopropyl-1H-pyrrolo[3,2-c]pyridin-3-yl)-1H-pyrazol-1-yl)-2-methylpropanamide] | 831 | –
O=S(=O)(C1CC1)n1cc(-c2nccc(Nc3cc4c(cn3)nc(CO)n4-c3ccccc3)n2)cn1 [Example 475, (6-(2-(1-(cyclopropylsulfonyl)-1H-pyrazol-4-yl)pyrimidin-4-ylamino)-l-phenyl-1H-imidazo[4,5-c]pyridin-2-yl)methanol] | 1810 | –
CC1(C)COCc2nc3cnc(Nc4ccnc(-c5cnn(S(=O)(=O)C6CC6)c5)n4)cc3n21 [Example 538, [2-(1-Cyclopropanesulfonyl-1H-pyrazol-4-yl)-pyrimidin-4-yl]-(4,4-dimethyl-3,4-dihydro-1H-2-oxa-4a,7,9-triazafluoren-6-yl)amine] | 838 | –
C[C@H](n1c([C@@H](C)O)nc2cnc(Nc3ccnc(-c4cnn(S(=O)(=O)C5CC5)c4)n3)cc21)C(F)(F)F [Example 572, (R)-1-[6-[2-(1-Cyclopropanesulfonyl-1H-pyrazol-4-yl)-pyrimidin-4-ylamino]-1-((S)-2,2,2-trifluoro-1-methylethyl)-1H-imidazo[4,5-c]pyridin-2-yl]-ethanol] | 167 | –

— patent US9890152B2 (Genentech, Inc., priority 2012, dated 2018)
